According to paper PMC8587999, “Assessment of the Activity of Decoquinate and Its Quinoline-O-Carbamate Derivatives against Toxoplasma gondii In Vitro and in Pregnant Mice Infected with T. gondii Oocysts” (Molecules, 2021):
≈ marks a conversion by molar mass, not a printed value. Where “and” joins values, the source holds several entries; their conditions need not be identical. Identical values can stand only once.

Assays:
[1] = system: T. gondii oocysts; set-up: method as in PMID 8735260; conditions: treatment commencing 10 days prior to infection with T. gondii oocysts; cited from earlier work
[2] = system: T. gondii TgShSp1 oocysts; assay: DCQ efficacy assessment in pregnant CD1 mice orally infected with TgShSp1 oocysts; assay type: in vivo
Method: Twenty-nine female and 15 male CD1 mice, all 8 weeks of age, were used. Oestrus-synchronization and mating was carried out as described under Section 4.6. Subsequently, females were distributed randomly to 3 experimental groups: DCQ, DCQ + infection (n = 12); C+, corn oil + infection (n = 12); C-, only corn oil (n = 5). Infection was performed with 100 TgShSp1 oocysts at day 7 post-mating by oral gavage; the C− group received PBS. The treatment with DCQ suspended in corn oil at 10 mg/kg/day for 5 days; that only with corn oil was initiated at 2 days post-infection. At day 18 post-mating, pregnant mice were distributed into single cages and non-pregnant mice were housed together with 3–4 animals per cage. Dams gave birth between day 20–22, and clinical status, litter size, neonatal and postnatal mortality were recorded daily. Four weeks post-partum (p.p.), all mice were euthanized in a chamber by isoflurane/CO2 inhalation. Blood and brain samples were collected. Total IgG was measured in T. gondii infected mice by ELISA [49].
(§1) Quantification of the cerebral parasite load in non-pregnant mice, dams and pups was carried out with an established real-time PCR method for the detection of T. gondii. The NucleoSpin DNA RapidLyze Kit (Macherey-Nagel, Oensingen, Switzerland) was used for DNA purification according to the standard protocol and DNA concentrations were quantified by the QuantiFluor double-stranded DNA (dsDNA) system (Promega, Madison, WI, USA). Quantitative real-time PCR was performed with the Light Cycler (Roche, Basel, Switzerland), and the parasite load was calculated by including a standard curve of DNA samples from 1000, 100, and 10 T. gondii tachyzoites per run.
(§2) Graph creation and statistical analysis was performed in GraphPad Prism version 5.0 (GraphPad Software, La Jolla, CA, USA). Cerebral parasite burdens were compared between groups by the non-parametric Kruskal–Wallis test, followed by Mann–Whitney U test. Pup mortality over time was depicted by plotting survival events at each time point in Kaplan–Meier graphs and survival curves were compared by the Log-rank (Mantel–Cox) test.

[3] = set-up: method as in PMID 32626086; conditions: cited from earlier work
[4] = system: Sarcocystis neurona; set-up: method as in PMID 23523012; conditions: cited from earlier work
[5] = set-up: method as in PMID 19614848; conditions: milking cows, formulated DCQ 0.5 mg/kg; cited from earlier work
[6] = system: T. gondii TgShSp1 oocysts; assay: RMB060 efficacy assessment in pregnant CD1 mice orally infected with TgShSp1 oocysts; assay type: in vivo
Method: Eight-week-old CD1 mice, 29 females and 15 males, were used. After oestrus-synchronization and mating, females were randomly distributed to 3 experimental groups: RMB060, RMB060 + infection (n = 12); C+, corn oil + infection (n = 12); C−, only corn oil (n = 5). Infection was carried out at day 7 post-mating with 100 TgShSp1 oocysts suspended in 100 µL PBS, with the C−group receiving only PBS. Treatments, separation of pregnant and non-pregnant mice, and monitoring were performed as described in Section 4.7. All mice were euthanized 4 weeks p.p. by isoflurane/CO2. Blood and brain samples were collected. Total IgG was measured in T. gondii infected mice by ELISA to see whether drug treatment would have an impact on the humoral immune response.
as §1, §2

[7] = CD1 mice, TgShSp1 oocysts, 10 mg/kg/day oral for 5 days, positive/total adult mice
[8] = brain PCR, surviving pups, 10 mg/kg/day oral for 5 days
[9] = brain PCR, 10 mg/kg/day oral for 5 days
[10] = dead pups/pups born, 10 mg/kg/day oral for 5 days, 10 mg/kg/day
[11] = real-time PCR, 4 weeks p.p., non-pregnant mice and dams
[12] = serum at end of experiment, RIPC, non-pregnant mice and dams

CCCCCCCCCCOc1cc2c(O)c(C(=O)OCC)cnc2cc1OCC [DCQ, ethyl 6-decyloxy-7-ethoxy-4-oxo-1H-quinoline-3-carboxylate]
Outcome of prophylactic treatment in ewes [1]: decreased pathological changes in the placental tissue | Vertical transmission ([2]; 10 mg/kg/day for 5 days): did not prevent vertical transmission | Neonatal pup mortality ([2]; 10 mg/kg/day for 5 days, C+ group 40%): 70% | No. of Pups/No. of Dams ([2]; 10 mg/kg/day oral for 5 days): 92/8 | Seropositive for T. gondii [2, 7]: 11/12 | Brain infection detected in adult mice (dams and non-pregnant mice) ([2]; PCR, 10 mg/kg/day for 5 days): 11 out of 12 | T. gondii Positive Pups [2, 8]: 25/25 | T. gondii Positive Dams [2, 9]: 8/8 | T. gondii Positive Non-Pregnant Mice [2, 9]: 3/4 | Neonatal Mortality [2, 10]: 64 out of 92 and 64/92 | Postnatal Mortality ([2]; dead/remaining pups, 1-month follow-up, 10 mg/kg/day oral for 5 days, 10 mg/kg/day): 3 of the 28 and 3/28 | Cerebral parasite burden compared to the C+ group [2, 11]: No statistically significant differences | T. gondii IgG antibody titers compared to the C+ group [2, 12]: no statistically significant differences | aqueous solubility [3]: 0.06 µg/mL (≈ 0.144 µM) | Activity against S. neurona schizonts ([4]; 10 day treatment at 240 nM): parasiticidal activity | IC50 ([4]; read-out: IC50 values for S. neurona merozoites): 600 to 1100 pM | maximum concentration attained in plasma [5]: 2 µM

CCCCCCCCCCOc1cc2c(OC(=O)N3CCN(S(C)(=O)=O)C3=O)c(C(=O)OCC)cnc2cc1OCC [RMB060]
Vertical transmission ([6]; 10 mg/kg/day for 5 days): vertical transmission to pups could not be prevented | Postnatal Mortality ([6]; 10 mg/kg/day for 5 days, C+ group 9.2%): 3.8% | Neonatal Mortality ([6]; 10 mg/kg/day for 5 days, C+ group 23%, non-significant): 16.8% | Surviving pups PCR-positive for T. gondii in the brain ([6]; 10 mg/kg/day for 5 days, C+ group 89%): 62% | No. of Pups/No. of Dams ([6]; 10 mg/kg/day oral for 5 days): 125/10 | Seropositive for T. gondii [6, 7]: 8/12 | Survival curves of pups compared to the C+ group ([6]; Kaplan–Meier, Log-rank (Mantel-Cox) test): No statistically significant differences | Brain infection detected in adult mice (dams and non-pregnant mice) ([6]; PCR, 10 mg/kg/day for 5 days): eight out of 12 | T. gondii Positive Pups [6, 8]: 62/100 | T. gondii Positive Dams [6, 9]: 7/10 | T. gondii Positive Non-Pregnant Mice [6, 9]: 1/2 | Neonatal Mortality [6, 10]: 21 out of 125 and 21/125 | Postnatal Mortality ([6]; dead/remaining pups, 10 mg/kg/day oral for 5 days): 4/104 | Cerebral parasite burden compared to the C+ group [6, 11]: No statistically significant differences | T. gondii IgG antibody titers compared to the C+ group [6, 12]: no statistically significant differences
